Series [1] deals with plasma LDL from WHHL rabbits. The series can be described thus: Association of 125I-labelled peptide with WHHL rabbit plasma lipoproteins (CLiP). It is filed as binding. As to the method: 100 μg of the ^125I-labelled peptide was mixed with 1 ml of plasma from 6 month old WHHL rabbit. After incubation for 1 h at room temperature, the plasma was subjected to CLiP analysis (66). Radioactivity in different fractions was determined and plotted on the CLiP profile. […] This improvement was associated with a reduction in 2 markers of oxidative stress.

The subject of series [2] is apo E null mice. Description: Atherosclerosis inhibition in apo E null mice, retroorbital administration, en face lesion analysis. In kind it is in vivo. As to the method: Extent of lesion is analyzed by en face preparation and staininf with Oil Red O.
Atherosclerosis inhibition studies in apo E null mice that develop atherosclerosis spontaneously were also performed. […] Lesion analysis was performed using the en face preparations. Sixteen week old mice would have well established lesions. […] Detailed studies on the mechanism of the inhibition of atherosclerosis are described below.

Series [3] concerns THP-1 monocyte derived macrophages. The series can be described thus: Secretion of de novo synthesized apo E by THP-1 monocyte derived macrophages. It is filed as cell-based. Conditions: 25 ug/10^6 cells, 35S-methionine, densitometry.
Protocol: Bands were developed by autoradiography and quantitated by densitiometry.
THP-1 monocyte derived macrophages were metabolically labeled with ^35S-methionine in RPMI medium containing FBS. Macrophages (10^6 cells) were treated with the dual-domain peptide (25 tjg/10^6 cells) for 5. Conditioned medium was collected and cells were washed with cold PBS. Preparative cocktail containing MEM, plus lupeptin (50 tjg/ml), pepstatin A (50 tjg/ml), and aprotinin (100 kallikrein inactivating units/ml) were added to the medium to preserve oxidative and proteolytic damage. The medium from control cells and peptide-treated medium were concentrated to equal volume and loaded quantitatively on SDS-polyacrylamide gels (4 to 20% PAGE for 2.5 h at 4° C. at 125 volts). The gel was exposed to x-ray film for overnight.
In series [4] the test system is NZW rabbits on 1% cholesterol diet. The series can be described thus: Peptide administration to NZW rabbits on 1% cholesterol diet. It is filed as in vivo, rabbit. How it is done: Administration of Ac-hE18A-NH2 to high fat diet administered rabbits with initial cholesterol values in the range of 600 mg/dl (1 week on 1% cholesterol diet). […] A 50% decrease in plasma cholesterol was observed after administration of the peptide.
This occurs through a lowering of plasma lipid hydroperoxide levels concomitant with a significant increase in the plasma paraoxonase (PON-1) activity. In the WHHL model, the LDL-R pathway is compromised, thus the accelerated atherogenic lipoprotein clearance is likely via the cell surface HSPG-mediated pathway, as described earlier in murine models (Garber, D. W. et al. Atherosclerosis. 163:229-237 2003).
It has been shown that very small amounts of D-4F, a class A amphipathic helical peptide, modifies several HDL properties (Navab, M., et al. Circulation 109:3215-3220 2004). […] NZW rabbits have been studied for hypercholesterolemia and relative LDL and β-VLDL production using diets containing different amounts of cholesterol (Holvoet, P. et al. Arterioscl. Thromb. Vasc. Biol. 17:2376-2382 1997). Thus, with 0.125% (w/w) cholesterol diet, LDL cholesterol levels increase; with 0.5% and higher cholesterol levels in the diet, […]-VLDL (containing apo B-100) increases dramatically. These β-VLDL particles contain increased amounts of oxidized lipids, thus enhancing the progression of atherosclerosis (Holvoet, P. et al. Arterioscl. Thromb. Vasc. Biol. 17:2376-2382 1997). To assess the effect of the peptide in this rabbit model, a 1% cholesterol diet fed NZW rabbits were utilized.
Rabbits responding to high cholesterol diet were randomized one week after the start of the diet to select rabbits with similar response (similar amounts of total plasma cholesterol). […] After 14 days from the first administration, plasma samples were taken from both the peptide-administered and saline administered (control) rabbits (n=3 in each group). The plasma samples from the peptide administered rabbits were not turbid, whereas the plasma samples from control rabbits were turbid. […] A second dose of peptide was administered 15 days after the first treatment. Since the cholesterol levels remained low two weeks after the second administration in peptide-administered rabbits, these and saline administered rabbits were sacrificed 51 days after the initiation of the diet. Aorta from the peptide administered and control rabbits were stained with Oil Red O. Aorta from the peptide administered rabbits had 40-50% less lesion than the control rabbit aorta.
Therefore, possible reasons for the clearance of atherogenic lipoproteins can be in addition to rapid hepatic clearance similar to the properties of apo E, modulation of HDL properties or synthesis of macrophage apo E. If this is true, this peptide may also exert its effect on endothelial function. Indeed it was observed that there is a recovery of endothelial function as studied by the acetylcholine dose-dependent aortal relaxation (FIG. 13). […] It is possible that lipid lowering can cause reduction of oxidative stress and thus inhibition of endothelial activation.
Results observed in HepG2 cells indicate that peptide associates with apo B-containing plasma lipoproteins to incorporate positive charges on the lipoprotein surface. This enables the apo B-containing lipoproteins to interact with heparan sulphate proteoglycans (HSPGs). The effect of these peptides on the mode of reduction of plasma cholesterol levels in mouse models and the two rabbit models can be determined. In NZW rabbits fed a 1% cholesterol-diet, a reduction of plasma cholesterol is observed which lasts for 14 days after the peptide administration; whereas in the WHHL rabbits, the reduction is initially rapid and returns to original levels within 3 days. Since the WHHL rabbit model is LDL-receptor defective, the differential effects of the peptide in two models can be due to differences in the receptor-mediated clearance pathways of atherogenic lipoproteins. […]

In series [5] the test system is HepG2 cells. The series can be described thus: Apo A-I / prebeta-HDL secretion by HepG2 cells. It is filed as cell-based.
The conditions of series [6]: experiments where atherogenic lipoprotein reduction was observed; CLiP; cited from earlier work.
Series [7] relates to apo E null mice. Description: Plasma cholesterol in apo E null mice after i.v. dual-domain peptides. In kind it is in vivo. Conditions: iv, n=4. How it is done:
The peptides represented are Ac-hE-18A-NH2, Ac-hE4F-NH2, and Ac-hE-Sc2F-NH2. Peptides Ac-hE-18A-NH2, Ac-hE-4F-NH2 and Ac-hE-Sc18A were administered (i.v.) to apo E null mice (n=4) and plasma cholesterol values were determined at before administration (0 min), 5 min and 2 h after administration.
As described above, peptides Ac-hE-18A-NH2, Ac-hE-4F-NH2 and Ac-hE-Sc18A were administered (iv) to apo E null mice (n=4) and plasma cholesterol values were determined at before administration (0 min), 5 min and 2 h after administration.

Series [8] deals with MEF 1 cells with induced LDL receptors. Conditions: cited from earlier work.

Turning to “Ac-LRKLRKRLLRDWLKAFYDKVAEKLKEAF-NH2 [Ac-hE-18A-NH2]”, the “association with WHHL plasma lipoproteins” value in series [1] (100 ug 125I-labelled peptide in 1 ml plasma, 1 h room temperature) is on record as “associates with LDL”. For the same substance, in series [1] (compared to plasma from untreated rabbits), the “LOOH content of peptide-treated WHHL plasma LDL” value was “reduced amounts of LOOH”. In series [2] (50 ug/mouse retroorbital, 3 times weekly, four weeks, sixteen week old female apo E null mice, en face, p<0.001), the “decreased lesion compared to control group” value is on record as 40%. For the same substance, the “loss of animals / visible injury” value in series [2] (12 retroorbital administrations, 50 ug/mouse) was “no loss of animals and no visible injury to animals was observed”. Besides, in series [3], the “intensity of 36 kDa apo E band relative to medium of control cells” value is 4 times. For the same substance, in series [4] (3 mg/kg i.v. twice, sacrificed 51 days after initiation of diet), the “less aorta lesion than control (Oil Red O)” value was 40-50%. Also, the “amounts of VLDL and LDL in plasma” value in series [4] (3 mg/kg i.v., 14 days after first administration, n=3) is given as “Significantly decreased”. The “lesion by en face analysis after 50 days” value in series [4] (3 mg/kg, saline-treated control ~50% lesion coverage) is “little to no lesion”. In addition, the “decrease in plasma cholesterol” value in series [4] (5 mg/kg iv two times, n=4 (FIG. 11 legend)) was found to be 50%. For the same substance, in series [4] (5 mg/kg iv two times, n=4, control in the range of 2000 mg/dl), the “plasma cholesterol values at end of 14 days” value was approximately 1000 mg/dL. Also, in series [4] (7.5 mg/kg i.v. in two intervals one week apart), the “plasma cholesterol less than in control rabbits at end of experiment” value was 50%. Besides, the “duration of reduction of plasma cholesterol after peptide administration” value in series [4] (NZW rabbits fed 1% cholesterol diet) worked out at 14 days. The “endothelial function, acetylcholine dose-dependent aortal relaxation” value in series [4] (aortal rings after 51 days of 1% cholesterol diet) is on record as “vascular response almost similar to aortas obtained from rabbits on a normal diet”. Also, the “time for which total plasma cholesterol levels were significantly decreased” value in series [4] (single intravenous administration 3 mg/kg) is on record as 15 days. Moreover, the prebeta-HDL production entry in series [5] (equal amount on weight basis (50 ug/ml), first overnight incubation) is reported as “produced preβ-HDL”. In addition, the “prebeta-HDL amount after second and third overnight incubation” value in series [5] (fresh cell medium without peptide) was “produced significant amounts”. Besides, the “effect on HDL levels” value in series [6] is listed as “did not reduce HDL levels”. The “reduction in plasma cholesterol levels at 2 h time point” value in series [7] is listed as “large reduction”. Moreover, in series [8], the LDL internalization enhanced result is listed as “five”.
